One test deals with S. aureus ATCC 13709. Nature of the test: MIC, S. aureus ATCC 13709. In kind it is cell-based. The settings on record: for MIC: Staphylococcus aureus.
For the next test, the system named is E. coli ATCC 25922. Nature of the test: MIC, E. coli ATCC 25922. Format: cell-based. The settings on record: for MIC: Escherichia coli.
Where [1] appears, read: ATCC13709, S. aureus, Alamar Blue read after overnight incubation at 35° C., read-out: MIC Sa.
Setting [2] is: ATCC25922, E. coli, Alamar Blue read after overnight incubation at 35° C., read-out: MIC Ec.
The mark [3] stands for this setting: S. aureus, Alamar Blue read after overnight incubation at 35° C.
Setting [4] is: E. coli, Alamar Blue read after overnight incubation at 35° C.

These results are taken from patent US10865216B2, “Tricyclic Gyrase inhibitors” (MERCK SHARP & DOHME CORP., priority 2012, dated 2020).

As usually defined, the MIC is the smallest concentration in the dilution series that meets the test's criterion for growth inhibition.

The structures appear in SMILES notation. Converted amounts (≈) assume the structure as drawn. Where two headings read alike, the source gives them in different places.

Turning to `Cc1ncc(Oc2nc(N3C[C@H](N)C4(CC4)C3)c3c(n2)[nH]c2c(N(C)C(=O)[C@H](C)N)cc(F)cc23)cn1` [Compound 4.423], the MIC in the test on S. aureus ATCC 13709 (setting [1]) and in the test on E. coli ATCC 25922 (setting [2]) was above 16 µg/mL throughout.
In the case of `CNc1cc(F)cc2c1[nH]c1nc(Oc3cnc(N(C)C)nc3)nc(N3CC(N)C4(CC4)C3)c12` (stereo not drawn) [Compound 4.209], in the test with S. aureus ATCC 13709 (setting [3]), the “MIC Sa” value is at most 0.5 µg/mL. The “MIC Ec” value in the test on E. coli ATCC 25922 (setting [4]) was at most 0.5 µg/mL.
Regarding `CNc1ncnc2c1[nH]c1nc(Oc3cnc(C)nc3)nc(N3CC4C(N)C4C3)c12` (stereo not drawn) [Compound 7.05], the values for the MIC with S. aureus ATCC 13709 (setting [1]) and with E. coli ATCC 25922 (setting [2]) were 8 µg/mL (≈ 19.8 µM) and 64 µg/mL (≈ 158 µM), respectively.
The corresponding values for `CNc1ncnc2c1[nH]c1nc(-c3cncnc3)nc(N3CC4C(N)C4C3)c12` (stereo not drawn) [Compound 7.11] are above 64 µg/mL and above 64 µg/mL.
Molecule `CNc1cc(F)cc2c1[nH]c1nc(Oc3ccc4cncnc4c3)nc(N3C[C@H]4C[C@@H]3C[C@H]4N)c12` [Compound 10.97] displayed an MIC Sa in the test with S. aureus ATCC 13709 (Table 18, Sa) of at most 0.5 µg/mL. This molecule returned an MIC Ec in the test with E. coli ATCC 25922 (Table 18, Ec) of 2 µg/mL (≈ 4.25 µM).
Regarding `CNc1cc(F)cc2c1[nH]c1nc(Oc3cnc(N)nc3)nc(N3CC4CC4(CN)C3)c12` (stereo not drawn) [Compound 4.185], the “MIC Sa” value against S. aureus ATCC 13709 (setting [3]) was at most 0.5 µg/mL. The “MIC Ec” value against E. coli ATCC 25922 (setting [4]) came out at 8 µg/mL (≈ 18.4 µM).
For the molecule `CNc1cc(F)cc2c1[nH]c1nc(Oc3cnc4[nH]cnc4c3)nc(N3CC4CCNC4C3)c12` (stereo not drawn) [Compound 4.312], the “MIC Sa” value with S. aureus ATCC 13709 (setting [3]) turned out to be 16 µg/mL (≈ 34.8 µM). The “MIC Ec” value in the test on E. coli ATCC 25922 (setting [4]) is above 16 µg/mL.
The corresponding values for `CNc1cc(F)cc2c1[nH]c1nc(Oc3cnc(C)nc3)nc(-c3cn[nH]c3)c12` [Compound 4.418] are at most 0.5 µg/mL and 1 µg/mL (≈ 2.56 µM).
The corresponding values for `CNc1cc(F)cc2c1[nH]c1nc(Oc3cnc4ccoc4c3)nc(N3CC4CCC(N)C4C3)c12` (stereo not drawn) [Compound 4.293] are at most 0.5 µg/mL and 1 µg/mL (≈ 2.11 µM).
As for `CNc1cc(F)cc2c1[nH]c1nc(Sc3cnc4ccc[n+]([O-])c4c3)nc(N3CCC4(CC4N)C3)c12` (stereo not drawn) [Compound 1.64], the minimum inhibitory concentration (MIC) with S. aureus ATCC 13709 (setting [1]) and with E. coli ATCC 25922 (setting [2]) was at most 0.5 µg/mL throughout.
As to `CNc1cc(F)cc2c1[nH]c1nc(Oc3cncnc3)nc(N3CC4CCC(N)C4C3)c12` (stereo not drawn) [Compound 4.026], in the test on S. aureus ATCC 13709 (setting [3]), the “MIC Sa” value was at most 0.5 µg/mL. For the same molecule, in the test on E. coli ATCC 25922 (setting [4]), the “MIC Ec” value is at most 0.5 µg/mL.
In the case of `CNc1cc(F)cc2c1[nH]c1nc(Oc3cnc(C4CC4)nc3)nc(N3CC4CCNC4C3)c12` (stereo not drawn) [Compound 4.250], the “MIC Sa” value with S. aureus ATCC 13709 (setting [3]) is at most 0.5 µg/mL. In addition, in the test on E. coli ATCC 25922 (setting [4]), the “MIC Ec” value was at most 0.5 µg/mL.
On to `CNc1cc(F)cc2c1[nH]c1nc(Oc3cncc(C#N)c3)nc(N3CCC4(CC4N)C3)c12` (stereo not drawn) [Compound 4.052], for which the “MIC Sa” value against S. aureus ATCC 13709 (setting [3]) was at most 0.5 µg/mL. In addition, in the test on E. coli ATCC 25922 (setting [4]), the “MIC Ec” value is at most 0.5 µg/mL.
Turning to `NC1CN(c2nc(Sc3cnc4nccnc4c3)nc3[nH]c4ccccc4c23)C1` [Compound 1.05], in the test with S. aureus ATCC 13709 (setting [3]), the “MIC Sa” value is above 64 µg/mL. For the same molecule, the “MIC Ec” value with E. coli ATCC 25922 (setting [4]) was above 64 µg/mL.
In the test on S. aureus ATCC 13709 (Table 18, Sa), `C=Cc1cc(F)c(F)c2c1[nH]c1nc(Oc3cnc(C)nc3)nc(N3C[C@H]4C[C@@H]3C[C@H]4N)c12` [Compound 10.110] yielded an MIC Sa of at most 0.5 µg/mL. In the test with E. coli ATCC 25922 (Table 18, Ec), this molecule gave an MIC Ec of at most 0.5 µg/mL.
Turning to `CNc1cc(F)cc2c1[nH]c1nc(Oc3cnc(N(C)C)nc3)nc(N3CC[C@@H](N)C3)c12` [Compound 4.207], the “MIC Sa” value in the test on S. aureus ATCC 13709 (setting [3]) was at most 0.5 µg/mL. Further, in the test with E. coli ATCC 25922 (setting [4]), the “MIC Ec” value was at most 0.5 µg/mL.
With `CNc1cccc2c1[nH]c1nc(Sc3cnc4cccnc4c3)nc(N3CC(N)C4(CC4)C3)c12` (stereo not drawn) [Compound 1.27], the MIC in the test with S. aureus ATCC 13709 (setting [1]) was at most 0.5 µg/mL; in the test with E. coli ATCC 25922 (setting [2]), 1 µg/mL (≈ 2.13 µM).
For `CCNc1cccc2c1[nH]c1nc(Sc3cnc4cccnc4c3)nc(N3CC4C(N)C4C3)c12` (stereo not drawn) [Compound 1.11] the same measures were at most 0.5 µg/mL and 8 µg/mL (≈ 17.1 µM).
The corresponding values for `CNc1cc(F)cc2c1[nH]c1nc(Sc3cnc4ccc[n+]([O-])c4c3)nc(N3CC(N)C4(CC4)C3)c12` (stereo not drawn) [Compound 1.63] are at most 0.5 µg/mL and at most 0.5 µg/mL.
Take `CNc1nccc2c1[nH]c1nc(Oc3cncc(F)c3)nc(N3CCC4(CC4N)C3)c12` (stereo not drawn) [Compound 7.07]: the MIC with S. aureus ATCC 13709 (setting [1]) is 16 µg/mL (≈ 38.1 µM); in the test on E. coli ATCC 25922 (setting [2]), above 64 µg/mL.
In the case of `CNc1cc(F)cc2c1[nH]c1nc(Oc3cnc(C)nc3)nc(N3CCC(C)(CN)C3)c12` (stereo not drawn), the MIC with S. aureus ATCC 13709 (ATCC13709, Table 16, new R4 substituents, read-out: SA MIC) is at most 0.5 µg/mL; with E. coli ATCC 25922 (ATCC25922, Table 16, new R4 substituents, EC8 not defined, read-out: EC8 MIC) it was at most 0.5 µg/mL.
`CNc1cc(F)cc2c1[nH]c1nc(Oc3cnc4c(C)cnn4c3)nc(N3C[C@H]4C[C@@H]3C[C@H]4N)c12` [Compound 10.19]: the MIC Sa in the test on S. aureus ATCC 13709 (Table 18, Sa) is at most 0.5 µg/mL. The molecule also had an MIC Ec with E. coli ATCC 25922 (Table 18, Ec) of at most 0.5 µg/mL.
`CCc1cc(F)cc2c1[nH]c1nc(Oc3cnc(C)nc3)nc(N3CC4CC(N)C4C3)c12` (stereo not drawn) [Compound 2.4]: the “MIC Sa” value with S. aureus ATCC 13709 (setting [3]) is at most 0.5 µg/mL. In addition, the “MIC Ec” value against E. coli ATCC 25922 (setting [4]) was found to be 1 µg/mL (≈ 2.31 µM).
The corresponding values for `CNc1cc(F)cc2c1[nH]c1nc(Oc3cnc(C4CC4)nc3)nc(N3CC4CCC(CN)C4C3)c12` (stereo not drawn) [Compound 4.253] are at most 0.5 µg/mL and at most 0.5 µg/mL.
